Consider 30 molecules from patent US20190071416A1, “COMPOUNDS FOR TREATMENT OF CANCER AND EPIGENETICS” (Agency For Science, Technology and Research, priority 2015, published 2019).

The target in the first assay is T1, SMYD3 (Homo sapiens, UniProt Q9H7B4).
T1 sequence (Q9H7B4 1-428): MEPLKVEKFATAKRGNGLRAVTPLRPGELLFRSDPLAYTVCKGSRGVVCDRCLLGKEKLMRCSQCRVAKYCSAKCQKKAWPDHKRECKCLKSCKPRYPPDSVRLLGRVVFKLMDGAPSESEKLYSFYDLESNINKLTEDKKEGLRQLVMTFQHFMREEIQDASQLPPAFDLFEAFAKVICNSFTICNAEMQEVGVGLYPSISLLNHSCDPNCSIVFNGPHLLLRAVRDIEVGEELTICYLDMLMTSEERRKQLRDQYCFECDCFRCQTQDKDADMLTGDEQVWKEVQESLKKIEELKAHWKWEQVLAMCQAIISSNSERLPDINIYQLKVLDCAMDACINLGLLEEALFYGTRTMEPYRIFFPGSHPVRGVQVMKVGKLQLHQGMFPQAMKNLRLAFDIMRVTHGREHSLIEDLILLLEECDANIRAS
The experiment in a line: SMYD3 biochemical assay (MTase-Glo, MAP3K2 peptide substrate).
Settings: not given
An outline of the steps:
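Luminescent readout of SAH production (coupled SAH→ATP conversion, MTase-Glo) after SMYD3 reacted 30 min at room temperature with 1.0 µM SAM and 10 µM MAP3K2 peptide, both final. Non-linear regression gave IC50 values.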
Regarding `NC(=O)C1CCN(CC(=O)Nc2ccc(Br)cc2)CC1` [BCI-121, reference compound], the “activity against SMYD3” value is “inactive”.
As to `NC(=O)C1CCN(CC(=O)Nc2ccc(Br)cc2)CC1` [X1, reference compound], the “activity against SMYD3” value is “inactive”.

Staying with this assay, now noted: Table 3; MTase assay, MAP3K2 peptide substrate; read-out: IC50.
For orientation: IC50 means the concentration that inhibits the measured activity by half. Take `CCCOC(=O)N1CCN(C(=O)c2ccc3c(Cl)cc(-c4ccc(OC)c(CN)c4)nc3c2)C[C@@H]1C` [B280, Propyl (S)-4-(2-(3-(aminomethyl)-4-methoxyphenyl)-4-chloroquinoline-7-carbonyl)-2-methylpiperazine-1-carboxylate]: the IC50 stood at 67 nM.
For the molecule `CCCOC(=O)N1CCN(C(=O)c2ccc3c(Cl)cc(-c4ccc(C5(N)CC5)cc4)nc3c2)C[C@H]1C` [B281, Propyl (R)-4-(2-(4-(1-aminocyclopropyl)phenyl)-4-chloroquinoline-7-carbonyl)-2-methylpiperazine-1-carboxylate], the IC50 stood at 12 nM.
For `CCCOC(=O)N1CCN(C(=O)c2ccc3c(Cl)cc(-c4ccc(C(C)(C)CN)cc4)nc3c2)C[C@H]1C` [B282, Propyl (R)-4-(2-(4-(1-amino-2-methylpropan-2-yl)phenyl)-4-chloroquinoline-7-carbonyl)-2-methylpiperazine-1-carboxylate], the IC50 was 13 nM.
`CCCOC(=O)N1CCN(C(=O)c2ccc3c(Cl)cc(-c4ccc(C(C)N5CCCC5)cc4)nc3c2)C[C@H]1C` (stereo partly drawn) [B283, Propyl (2R)-4-(4-chloro-2-(4-(1-(pyrrolidin-1-yl)ethyl)phenyl)quinoline-7-carbonyl)-2-methylpiperazine-1-carboxylate]: the IC50 turned out to be 280 nM.
Regarding `CCCOC(=O)N1CCN(C(=O)c2ccc3c(Cl)cc(-c4ccc(C(C)N(C)C)cc4)nc3c2)C[C@H]1C` (stereo partly drawn) [B284, Propyl (2R)-4-(4-chloro-2-(4-(1-(dimethylamino)ethyl)phenyl)quinoline-7-carbonyl)-2-methylpiperazine-1-carboxylate], the IC50 came to 24 nM.
On the same count and under the same terms, as for `CCCOC(=O)N1CCN(C(=O)c2ccc3c(Cl)cc(-c4ccc(C(C)(C)CN)cc4)nc3c2)CC1` [B285, Propyl 4-(2-(4-(1-amino-2-methylpropan-2-yl)phenyl)-4-chloroquinoline-7-carbonyl)piperazine-1-carboxylate], the figure is 13 nM; as for `CCCOC(=O)N1CCN(C(=O)c2ccc3c(Cl)cc(-c4ccc(C(C)(C)CNC)cc4)nc3c2)CC1` [B286, Propyl 4-(4-chloro-2-(4-(2-methyl-1-(methylamino)propan-2-yl)phenyl)quinoline-7-carbonyl)piperazine-1-carboxylate], 25 nM; as for `CCCOC(=O)N1CCN(C(=O)c2ccc3c(Cl)cc(-c4ccc(C(C)(C)CN(C)C)cc4)nc3c2)CC1` [B287, Propyl 4-(4-chloro-2-(4-(1-(dimethylamino)-2-methylpropan-2-yl)phenyl)quinoline-7-carbonyl)piperazine-1-carboxylate], 130 nM.
For the molecule `C=CCOC(=O)N1CCN(C(=O)c2ccc3c(Cl)c4c(nc3c2)CCC4)CC1` [C002, Allyl 4-(9-chloro-2,3-dihydro-1H-cyclopenta[b]quinoline-6-carbonyl)piperazine-1-carboxylate], the IC50 was 10000 nM.
Same read-out and setting: as for `CCCOC(=O)N1CCN(C(=O)c2ccc3c(Cl)c(C)c(C)nc3c2)CC1` [C003, Propyl 4-(4-chloro-2,3-dimethylquinoline-7-carbonyl)piperazine-1-carboxylate], the figure is 3000 nM; as for `CCCOC(=O)N1CCN(C(=O)c2ccc3c(Cl)cc(CC)nc3c2)CC1` [C004, Propyl 4-(4-chloro-2-ethylquinoline-7-carbonyl)piperazine-1-carboxylate], 1400 nM.
As to `CCCOC(=O)N1CCN(C(=O)c2ccc3c(Cl)c(C#N)c(C)nc3c2)CC1` [C006, Propyl 4-(4-chloro-3-cyano-2-methylquinoline-7-carbonyl)piperazine-1-carboxylate], the half-inhibitory concentration (IC50) was found to be 2800 nM.
As to `CCCOC(=O)N1C2CCCC1CN(C(=O)c1ccc3c(Cl)ccnc3c1)C2` [C007, Propyl 3-(4-chloroquinoline-7-carbonyl)-3,9-diazabicyclo[3.3.1]nonane-9-carboxylate], the concentration for half-maximal inhibition (IC50) was 550 nM.
Take `CCCOC(=O)N1CCN(C(=O)c2ccc3c(Cl)c4c(nc3c2)CCNC4)CC1` [C008, Propyl 4-(10-chloro-1,2,3,4-tetrahydrobenzo[b][1,6]naphthyridine-7-carbonyl)piperazine-1-carboxylate]: the IC50 worked out at 4600 nM.
With `C[C@@H]1CN(C(=O)c2ccc3c(Cl)cc(-c4ccn(C)c4)nc3c2)CCN1C(=O)C[C@H]1CCC(=O)N1` [D001, (R)-5-(2((R)-4-(4-Chloro-2-(1-methyl-1H-pyrrol-3-yl)quinoline-7-carbonyl)-2-methylpiperazin-1-yl)-2-oxoethyl)pyrrolidin-2-one], the IC50 amounted to 13600 nM.
Turning to `O=C(c1ccc2c(Cl)cc(-c3ccccc3)nc2c1)N1CCN(C(=O)c2cn(C3CC3)nn2)CC1` [D002, (4-Chloro-2-phenylquinolin-7-yl)(4-(1-cyclopropyl-1H-1,2,3-triazole-4-carbonyl)piperazin-1-yl)methanone], the IC50 turned out to be 4 nM.
On the same count and under the same terms, as for `Cn1ccc(-c2cc(Cl)c3ccc(C(=O)N4CCN(C(=O)c5cn(C6CC6)nn5)CC4)cc3n2)c1` [D003, (4-Chloro-2-(1-methyl-1H-pyrrol-3-yl)quinolin-7-yl)(4-(1-cyclopropyl-1H-1,2,3-triazole-4-carbonyl)piperazin-1-yl)methanone], the figure is 25 nM; as for `C[C@@H]1CN(C(=O)c2ccc3c(Cl)cc(-c4ccn(C)c4)nc3c2)CCN1C(=O)c1cn(C2CC2)nn1` [D004, (R)-(4-Chloro-2-(1-methyl-1H-pyrrol-3-yl)quinolin-7-yl)(4-(1-cyclopropyl-1H-1,2,3-triazole-4-carbonyl)-3-methylpiperazin-1-yl)methanone], 13 nM; as for `C[C@@H]1CN(C(=O)c2ccc3c(Cl)cc(-c4ccccc4)nc3c2)CCN1C(=O)c1cn(C2CC2)nn1` [D005, (R)-(4-Chloro-2-phenylquinolin-7-yl)(4-(1-cyclopropyl-1H-1,2,3-triazole-4-carbonyl)-3-methylpiperazin-1-yl)methanone], 77 nM.
Same read-out and setting: the result for `C[C@@H]1CN(C(=O)c2ccc3c(Cl)cc(-c4ccc(C(C)(C)O)cc4)nc3c2)CCN1C(=O)c1cn(C2CC2)nn1` [D006, (R)-(4-Chloro-2-(4-(2-hydroxypropan-2-yl)phenyl)quinolin-7-yl)(4-(1-cyclopropyl-1H-1,2,3-triazole-4-carbonyl)-3-methylpiperazin-1-yl)methanone] reads 52 nM; that for `Cn1cc(C(=O)N2CCN(C(=O)c3ccc4c(Cl)cc(-c5ccccc5)nc4c3)CC2)nn1` [D007, (4-Chloro-2-phenylquinolin-7-yl)(4-(1-methyl-1H-1,2,3-triazole-4-carbonyl)piperazin-1-yl)methanone], 83 nM; that for `CC(C)(C)n1cc(C(=O)N2CCN(C(=O)c3ccc4c(Cl)cc(-c5ccccc5)nc4c3)CC2)nn1` [D008, (1-(Tert-butyl)-1H-1,2,3-triazol-4-yl)(4-(4-chloro-2-phenylquinoline-7-carbonyl)piperazin-1-yl)methanone], 450 nM.
In the case of `O=C(c1ccc2c(Cl)cc(-c3ccccc3)nc2c1)N1CCN(C(=O)c2cnn(C3CC3)c2)CC1` [D011, (4-Chloro-2-phenylquinolin-7-yl)(4-(1-cyclopropyl-1H-pyrazole-4-carbonyl)piperazin-1-yl)nethanone], the IC50 stood at 200 nM.
As for `CC(C)(CN)c1ccc(-c2cc(Cl)c3ccc(C(=O)N4CCN(C(=O)c5cn(C6CC6)nn5)CC4)cc3n2)cc1` [D012, (2-(4-(1-Amino-2-methylpropan-2-yl)phenyl)-4-chloroquinolin-7-yl)(4-(1-cyclopropyl-1H-1,2,3-triazole-4-carbonyl)piperazin-1-yl)nethanone], the IC50 was found to be 100 nM.
For `NC1(c2ccc(-c3cc(Cl)c4ccc(C(=O)N5CCN(C(=O)c6cn(C7CC7)nn6)CC5)cc4n3)cc2)CC1` [D013, (2-(4-(1-Aminocyclopropyl)phenyl)-4-chloroquinolin-7-yl)(4-(1-cyclopropyl-1H-1,2,3-triazole-4-carbonyl)piperazin-1-yl)methanone], the 50% inhibitory concentration (IC50) amounted to 78 nM.
Consider `COc1ccc(-c2cc(Cl)c3ccc(C(=O)N4CCN(C(=O)c5cn(C6CC6)nn5)CC4)cc3n2)cc1CN` [D014, (2-(3-(Aminomethyl)-4-methoxyphenyl)-4-chloroquinolin-7-yl)(4-(1-cyclopropyl-1H-1,2,3-triazole-4-carbonyl)piperazin-1-yl)methanone], for which the IC50 was 69 nM.
With `NCc1cc(-c2cc(Cl)c3ccc(C(=O)N4CCN(C(=O)c5cn(C6CC6)nn5)CC4)cc3n2)ccc1F` [E019, (2-(3-(Aminomethyl)-4-fluorophenyl)-4-chloroquinolin-7-yl)(4-(1-cyclopropyl-1H-1,2,3-triazole-4-carbonyl)piperazin-1-yl)methanone], the IC50 amounted to 39 nM.
With `CN(C)Cc1cc(-c2cc(Cl)c3ccc(C(=O)N4CCN(C(=O)c5cn(C6CC6)nn5)CC4)cc3n2)ccc1F` [E020, (4-Chloro-2-(3-((dimethylamino)methyl)-4-fluorophenyl)quinolin-7-yl)(4-(1-cyclopropyl-1H-1,2,3-triazole-4-carbonyl)piperazin-1-yl)methanone], the IC50 was 58 nM.

The same assay, now with this note: Table 4; prior art compounds; read-out: IC50.
`NC(=O)C1CCN(CC(=O)Nc2ccc(Br)cc2)CC1` [X1, reference compound]: the IC50 is over 250000 nM.
